What all share (assay type): biochemical
One test addresses RET-V804L (Homo sapiens, UniProt P07949, V804L). Briefly: RET inhibition experiment (HTRF KinEASE-TK kit), mutant RET-V804L. The settings on record: read-out: The IC50 (nM) for inhibiting RET-V804L. As for the experimental part: (§1) Experimental method: […] After incubation at room temperature for 40 min, TK antibody-cryptate and streptavidin-XL665 were added, and the test was performed after incubation at room temperature for 45 min. With the solvent group (DMSO) as the negative control and the buffer group (without RET enzyme) as the blank control, the relative inhibitory activity percentages (i.e., inhibition rates) of different concentrations of the compounds were computed as per the following formula: […] The relative inhibitory activity percentages of different concentrations of the compounds were plotted with respect to the compound concentrations, and the curve was fitted according to a four-parameter model to compute the IC50 value as per the following formula: y=min+(max-min)/(1+(x/IC50)^(-Hillslope)) where y is the relative inhibitory activity percentage, max is the maximum value of the fitted curve, min is the minimum value of the fitted curve, x is the logarithmic concentration of the compound, and Hillslope is the slope of the curve.
A general note: In TR-FRET formats the signal depends on donor and acceptor labels being close together.

The target of a further test is T1, RET-CCDC6 (Homo sapiens, UniProt P07949).
T1 construct: CCDC6 fusion partner (Q16204 for human); the other entry of the earlier key: CCDC6 (Q16204, Coiled-coil domain-containing protein 6)
T1 sequence (P07949 with tags, fused parts or gaps): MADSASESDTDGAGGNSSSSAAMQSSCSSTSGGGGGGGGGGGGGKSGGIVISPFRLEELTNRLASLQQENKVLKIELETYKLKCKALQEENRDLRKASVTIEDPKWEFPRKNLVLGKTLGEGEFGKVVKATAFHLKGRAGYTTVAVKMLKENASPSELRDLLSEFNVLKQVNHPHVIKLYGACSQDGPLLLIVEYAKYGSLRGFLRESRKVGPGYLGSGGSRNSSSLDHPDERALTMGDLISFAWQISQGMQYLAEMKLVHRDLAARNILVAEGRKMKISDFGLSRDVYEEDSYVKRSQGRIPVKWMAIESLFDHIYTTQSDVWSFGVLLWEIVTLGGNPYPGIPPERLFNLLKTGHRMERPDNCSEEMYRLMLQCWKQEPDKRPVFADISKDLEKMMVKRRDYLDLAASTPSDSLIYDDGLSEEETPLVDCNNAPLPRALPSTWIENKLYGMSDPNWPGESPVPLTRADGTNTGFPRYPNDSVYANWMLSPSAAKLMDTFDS
Briefly: RET inhibition experiment (HTRF KinEASE-TK kit), fusion-type RET enzyme. The settings on record: read-out: The IC50 (nM) for inhibiting RET-CCDC6. As for the experimental part: as §1

The next test concerns the target RET-V804M (Homo sapiens, UniProt P07949, V804M). As to the kind of experiment: RET inhibition experiment (HTRF KinEASE-TK kit), mutant RET-V804M. As to conditions: read-out: The IC50 (nM) for inhibiting V804M. Put shortly: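 Enzyme was pre-incubated with compound at room temperature for 30 min, then substrate and ATP were added for a 40 min reaction. HTRF signal was read after 45 min with TK antibody-cryptate and streptavidin-XL665. IC50 came from a four-parameter fit of percent inhibition against DMSO and no-enzyme controls.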

A further test addresses VEGFR2 (Homo sapiens, UniProt P35968). As to the kind of experiment: VEGFR2 inhibition experiment (HTRF KinEASE-TK kit). As to conditions: read-out: Inhibition rate on VEGFR2; for inhibition at 0.1 µM: 100 nM. Put shortly:
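HTRF KinEASE-TK format: enzyme and compound were preincubated 30 min at room temperature, then substrate and ATP added for 40 min, followed by cryptate antibody/streptavidin-XL665 detection for 45 min. Inhibition was normalised to DMSO and no-enzyme controls; IC50 from a four-parameter fit.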

Another test deals with RET-M918T (Homo sapiens, UniProt P07949, M918T). As to the kind of experiment: RET inhibition experiment (HTRF KinEASE-TK kit), mutant RET-M918T. The settings on record: read-out: The IC50 (nM) for inhibiting the enzyme RET-M918T. As for the experimental part:
as §1

The next test addresses RET-WT (Homo sapiens, UniProt P07949). Briefly: RET inhibition experiment (HTRF KinEASE-TK kit), wild-type RET enzyme. As to conditions: read-out: The IC50 (nM) for inhibiting RET-WT. As for the experimental part:
as §1

RET-V804L, sequence (P07949 29-1114 V804L): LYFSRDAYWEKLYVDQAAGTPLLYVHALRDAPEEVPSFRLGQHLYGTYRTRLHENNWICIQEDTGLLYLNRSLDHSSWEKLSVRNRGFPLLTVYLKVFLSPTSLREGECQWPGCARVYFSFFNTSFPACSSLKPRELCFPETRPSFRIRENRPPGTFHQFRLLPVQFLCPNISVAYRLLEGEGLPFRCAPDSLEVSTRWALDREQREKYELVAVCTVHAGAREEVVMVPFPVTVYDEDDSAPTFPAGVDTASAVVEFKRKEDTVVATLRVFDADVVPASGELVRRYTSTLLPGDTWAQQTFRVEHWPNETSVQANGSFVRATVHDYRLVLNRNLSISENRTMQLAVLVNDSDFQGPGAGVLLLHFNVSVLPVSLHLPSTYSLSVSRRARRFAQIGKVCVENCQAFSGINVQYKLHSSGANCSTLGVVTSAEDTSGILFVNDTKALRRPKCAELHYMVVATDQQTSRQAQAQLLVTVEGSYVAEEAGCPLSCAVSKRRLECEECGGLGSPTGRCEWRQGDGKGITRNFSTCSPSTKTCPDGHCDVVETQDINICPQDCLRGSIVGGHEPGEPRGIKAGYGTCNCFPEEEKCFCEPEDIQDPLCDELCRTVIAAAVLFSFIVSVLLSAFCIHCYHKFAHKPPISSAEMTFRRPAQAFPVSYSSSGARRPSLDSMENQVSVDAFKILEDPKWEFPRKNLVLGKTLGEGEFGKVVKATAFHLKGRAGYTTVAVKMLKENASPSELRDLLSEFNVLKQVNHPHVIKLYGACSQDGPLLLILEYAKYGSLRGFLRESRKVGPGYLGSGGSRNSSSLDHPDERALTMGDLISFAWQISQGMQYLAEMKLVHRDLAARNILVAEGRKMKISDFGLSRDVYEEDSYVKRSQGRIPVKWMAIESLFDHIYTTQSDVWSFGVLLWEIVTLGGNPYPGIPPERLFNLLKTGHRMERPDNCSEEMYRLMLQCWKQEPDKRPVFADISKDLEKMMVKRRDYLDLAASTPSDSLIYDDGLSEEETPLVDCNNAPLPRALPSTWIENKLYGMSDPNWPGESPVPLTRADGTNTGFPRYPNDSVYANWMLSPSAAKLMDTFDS
RET-M918T, sequence (P07949 29-1114 M918T): as the sequence (P07949 29-1114 V804L) above, with L776V, M890T counted along it
VEGFR2, sequence (P35968 20-1356, species assumed): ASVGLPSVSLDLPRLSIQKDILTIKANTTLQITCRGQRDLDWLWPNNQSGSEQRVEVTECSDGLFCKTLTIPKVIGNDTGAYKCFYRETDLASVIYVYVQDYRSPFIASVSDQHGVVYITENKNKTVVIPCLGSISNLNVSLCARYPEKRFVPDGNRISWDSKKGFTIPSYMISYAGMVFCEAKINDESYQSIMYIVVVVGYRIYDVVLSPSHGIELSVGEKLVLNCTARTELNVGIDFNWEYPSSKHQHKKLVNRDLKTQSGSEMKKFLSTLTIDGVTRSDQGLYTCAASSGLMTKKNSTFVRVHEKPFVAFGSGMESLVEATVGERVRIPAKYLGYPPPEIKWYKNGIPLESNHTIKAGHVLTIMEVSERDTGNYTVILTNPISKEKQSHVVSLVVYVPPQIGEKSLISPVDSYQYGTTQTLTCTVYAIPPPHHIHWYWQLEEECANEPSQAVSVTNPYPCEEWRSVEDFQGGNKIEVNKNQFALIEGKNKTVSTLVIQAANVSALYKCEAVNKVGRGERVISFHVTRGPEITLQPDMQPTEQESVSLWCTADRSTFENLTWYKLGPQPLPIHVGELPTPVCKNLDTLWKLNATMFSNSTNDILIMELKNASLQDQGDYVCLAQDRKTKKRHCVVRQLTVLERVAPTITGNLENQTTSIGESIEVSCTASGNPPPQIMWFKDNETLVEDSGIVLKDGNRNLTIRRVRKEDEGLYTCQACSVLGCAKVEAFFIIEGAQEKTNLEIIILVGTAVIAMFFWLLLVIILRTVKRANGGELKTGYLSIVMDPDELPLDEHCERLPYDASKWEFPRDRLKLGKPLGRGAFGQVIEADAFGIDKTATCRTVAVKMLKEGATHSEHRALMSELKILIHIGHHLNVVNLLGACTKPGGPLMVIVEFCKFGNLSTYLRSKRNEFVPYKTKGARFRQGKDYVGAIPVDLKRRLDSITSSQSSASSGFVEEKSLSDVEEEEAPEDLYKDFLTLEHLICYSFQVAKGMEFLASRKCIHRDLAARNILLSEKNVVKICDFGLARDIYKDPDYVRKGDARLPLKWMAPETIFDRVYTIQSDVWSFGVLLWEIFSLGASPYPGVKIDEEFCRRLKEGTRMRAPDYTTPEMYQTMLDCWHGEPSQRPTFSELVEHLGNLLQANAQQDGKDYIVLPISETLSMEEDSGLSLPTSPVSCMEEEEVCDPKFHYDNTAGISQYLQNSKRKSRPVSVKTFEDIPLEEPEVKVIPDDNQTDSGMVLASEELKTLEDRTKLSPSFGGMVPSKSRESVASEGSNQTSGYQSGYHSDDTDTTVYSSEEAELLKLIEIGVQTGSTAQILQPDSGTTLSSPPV
RET-V804M, sequence (P07949 29-1114 V804M): as the sequence (P07949 29-1114 V804L) above, with L776M counted along it
RET-WT, sequence (P07949 29-1114): as the sequence (P07949 29-1114 V804L) above, with L776V counted along it

For `Cc1cc(Nc2cc(C)[nH]n2)nc(-c2ccc(N3CC4CC(C3)N4Cc3ccc(-n4ccc(C5CC5)n4)nc3)nc2)n1` [Compound 120, 2-(6-(6-((6-(3-cyclopropyl-1H-pyrazol-1-yl)pyridin-3-yl)methyl)-3,6-diazabicyclo[3.1.1]heptan-3-yl)pyridin-3-yl)-6-methyl-N-(5-methyl-1H-pyrazol-3-yl)pyrimidin-4-amine], the IC50 on RET-V804L is 10.1 ± 1.05 nM; at RET-CCDC6, 18.7 ± 7.27 nM; at RET-V804M, 9.12 ± 1.85 nM; on RET-M918T, 15.8 ± 3.65 nM; at RET-WT it was 7.33 ± 1.19 nM. In addition, the inhibition at 0.1 µM on VEGFR2 came out at 28%.
Regarding `Cc1cc(Nc2cc(C)[nH]n2)nc(-c2ccc(N3CC4CC(C3)N4Cc3ccc(-n4cccn4)nc3)nc2)n1` [Compound 60, 2-(6-(6-((6-(1H-pyrazol-1-yl)pyridin-3-yl)methyl)-3,6-diazabicyclo[3.1.1]heptan-3-yl)pyridin-3-yl)-6-methyl-N-(5-methyl-1H-pyrazol-3-yl)pyrimidin-4-amine], the IC50 is 5.07 ± 0.4 nM on RET-V804L; 3.99 ± 0.79 nM at RET-CCDC6; 3.77 ± 0.52 nM on RET-V804M; 1.29 ± 0.27 nM on RET-M918T; 2.7 ± 0.69 nM on RET-WT. Besides, the inhibition at 0.1 µM on VEGFR2 was determined as 65%.
Take `Cc1cc(Nc2cc(C)[nH]n2)nc(-c2ccc(N3CC4CC(C3)N4Cc3ccc(-n4ncc(F)c4C)nc3)nc2)n1` [Compound 122, 2-(6-(6-((6-(4-fluoro-5-methyl-1H-pyrazol-1-yl)pyridin-3-yl)methyl)-3,6-diazabicyclo[3.1.1]heptan-3-yl)pyridin-3-yl)-6-methyl-N-(5-methyl-1H-pyrazol-3-yl)pyrimidin-4-amine]: the IC50 on RET-V804L worked out at 4.79 ± 1.68 nM; on RET-CCDC6, 2.91 ± 0.41 nM; on RET-V804M, 3.33 ± 0.75 nM; at RET-M918T, 4.03 ± 0.66 nM; at RET-WT, 2.35 ± 0.24 nM. Also, at VEGFR2 (300 nM), the inhibition at 0.3 µM turned out to be 67%.

The term IC50 denotes the concentration that gives 50% inhibition. In general, inhibition refers to how much of the control response was suppressed.

The values above are taken from patent US20220144847A1, “HETEROCYCLIC COMPOUND, PHARMACEUTICAL COMPOSITION COMPRISING SAME, PREPARATION METHOD THEREFOR, AND USE THEREOF” (Sichuan Kelun-Biotech Biopharmaceutical Co., Ltd., priority 2019, published 2022).
